# Test results taken from paper PMC11071649, “Synthesis and Selective Anticancer Activity Evaluation of 2-phenylacrylonitrile Derivatives as Tubulin Inhibitors” (Current Medicinal Chemistry, 2024).
# Legend:
# Type in all cases: cell-based, human
# [1] = test system: MGC-803 late stage differentiation gastric cancer cell; assay: MTT anti-proliferative assay, MGC-803; settings: for IC50: MTT, 48 h
# Description: (§1) The anti-proliferation activities of the synthesized analogs were assessed by an in vitro MTT assay conducted on thirteen human cell lines. Their cytotoxic activities were evaluated by measuring the inhibition of net cell growth. […]
# (§2) 1.6. Cell lines and cell culture
# (§3) MTT was purchased from Sigma-Aldrich Co. (St. Louis, MO, USA). The PI and Annexin V-FITC apoptosis detection kit were purchased from Invitrogen (Eugene, OR, USA). All human cell lines were used in this study. […]
# (§4) cell, MCF-7 breast cancer cell, MCF-10A normal breast cell, Raji B lymphoblastoid cell and diffuse large B-cell lymphoma SU-DHL-10 cell were initially purchased from American Type Culture Collection (ATCC, Manassas, Virginia). media, DMEM, and FBS were provided from Gibco Company.
# (§5) 1.7. Cell growth inhibition assay (MTT assay)
# (§6) The experiment was carried out according to the method of reference. Briefly, cells were plated in 96-well plates at a den- […]
# (§7) the anti-proliferative activities were determined by MTT assay. […]
# (§8) (Becton-Dickinson, Franklin Lakes, NJ). […]
# [2] = test system: Raji B lymphoblastoid cell; assay: MTT anti-proliferative assay, Raji; settings: for IC50: MTT, 48 h, read-out: IC50 Raji
# Description: as §1, §2, §3, §4, §5, §6, §7, §8
# [3] = test system: SGC-7901 early differentiation gastric cancer cell; assay: MTT anti-proliferative assay, SGC-7901; settings: for IC50: MTT, 48 h
# Description: as §1, §2, §3, §4, §5, §6, §7, §8
# A549 lung cancer cell = assay: MTT anti-proliferative assay, A549; settings: for IC50: MTT, 48 h
# Description: as §1, §2, §3, §4, §5, §6, §7, §8
# [4] = test system: BEL-7402 liver cancer cell; assay: MTT anti-proliferative assay, BEL-7402; settings: for IC50: MTT, 48 h
# Description: as §1, §2, §3, §4, §5, §6, §7, §8
# AGS gastric cancer cell = assay: MTT anti-proliferative assay, AGS; settings: for IC50: MTT, 48 h
# Description: as §1, §2, §3, §4, §5, §6, §7, §8
# [5] = test system: diffuse large B-cell lymphoma SU-DHL-10 cell; assay: MTT anti-proliferative assay, SU-DHL-10; settings: for IC50: MTT, 48 h, read-out: IC50 SU-DHL-10
# Description: as §1, §2, §3, §4, §5, §6, §7, §8
# MCF-7 breast cancer cell = assay: MTT anti-proliferative assay, MCF-7; settings: MTT, 48 h
# Description: as §1, §2, §3, §4, §5, §6, §7, §8
# [6] = test system: MCF-10A normal breast cell; assay: MTT assay, MCF-10A normal cells; settings: 48 h
# Description: as §1, §2, §3, §4, §5, §6, §7, §8
# HepG2 hepatoma cell = assay: MTT anti-proliferative assay, HepG2; settings: for IC50: MTT, 48 h, read-out: IC50 HepG-2
# Description: as §1, §2, §3, §4, §5, §6, §7, §8
# [7] = test system: HCT116 colectal cancer cell; assay: MTT anti-proliferative assay, HCT116; settings: for IC50: MTT, 48 h, read-out: IC50 HCT-116
# Description: as §1, §2, §3, §4, §5, §6, §7, §8
# [8] = test system: HeLa cervical cancer cell; assay: MTT anti-proliferative assay, HeLa; settings: MTT, 48 h
# Description: as §1, §2, §3, §4, §5, §6, §7, §8
# L-02 normal liver cell = assay: MTT assay, L-02 normal cells; settings: 48 h
# Description: as §1, §2, §3, §4, §5, §6, §7, §8
IC50 [1],IC50 [2],IC50 [3],IC50 (A549 lung cancer cell),IC50 [4],IC50 (AGS gastric cancer cell),IC50 [5],IC50 (MCF-7 breast cancer cell),IC50 (HepG2 hepatoma cell),IC50 [7],IC50 [8],SMILES,IC50 [6],IC50 (L-02 normal liver cell),"SI (selectivity index), IC50 (L-02)/IC50 (MGC-803) [1]","SI (selectivity index), IC50 (L-02)/IC50 (SGC-7901) [3]","SI (selectivity index), IC50 (L-02)/IC50 (AGS) (AGS gastric cancer cell)","SI (selectivity index), IC50 (L-02)/IC50 (HCT-116) [7]","SI (selectivity index), IC50 (L-02)/IC50 (HepG-2) (HepG2 hepatoma cell)","SI (selectivity index), IC50 (L-02)/IC50 (BEL-7402) [4]",other results
> 100 µM,> 100 µM,> 100 µM,> 100 µM,> 100 µM,> 100 µM,> 100 µM,> 100 µM,> 100 µM,> 100 µM,> 100 µM,N#C/C(=C\c1ccc(N2CCOCC2)cc1)c1ccc(OC(F)(F)F)cc1 [Compound 1a2s],> 100 µM,> 100 µM,–,–,–,–,–,–,–
> 100 µM,> 100 µM,> 100 µM,> 100 µM,> 100 µM,> 100 µM,> 100 µM,> 100 µM,> 100 µM,> 100 µM,> 100 µM,N#C/C(=C\c1ccc(N2CCCCC2)cc1)c1ccc(OC(F)(F)F)cc1 [Compound 1a2u],> 100 µM,> 100 µM,–,–,–,–,–,–,–
> 100 µM,> 100 µM,> 100 µM,> 100 µM,> 100 µM,> 100 µM,> 100 µM,> 100 µM,> 100 µM,> 100 µM,> 100 µM,N#C/C(=C\c1cccc2ccccc12)c1ccc(OC(F)(F)F)cc1 [Compound 1a3c],> 100 µM,> 100 µM,–,–,–,–,–,–,–
> 100 µM,> 100 µM,> 100 µM,> 100 µM,> 100 µM,> 100 µM,> 100 µM,> 100 µM,> 100 µM,> 100 µM,> 100 µM,N#C/C(=C\c1ccc(Cl)cc1)c1cccc(OC(F)(F)F)c1 [Compound 1b2c],> 100 µM,> 100 µM,–,–,–,–,–,–,–
3.7 ± 1.3 µM,20.1 ± 2.3 µM,7.1 ± 2.4 µM,> 100 µM,1 ± 0.8 µM,> 100 µM,> 100 µM,> 100 µM,42.3 ± 18.2 µM,0.3 ± 0.2 µM,> 100 µM,CN(C)c1ccc(/C=C(\C#N)c2cccc(OC(F)(F)F)c2)cc1 [Compound 1b2h],> 100 µM,52 ± 8.4 µM,> 13.9,> 7.2,–,> 153.1,> 1.3,> 50.5,"SI (selectivity index), IC50 (L-02)/IC50 (Raji) [2]: > 2.5"

# Continued, molecule first:
SMILES,IC50 [1],IC50 [2],IC50 [3],IC50 (A549 lung cancer cell),IC50 [4],IC50 (AGS gastric cancer cell),IC50 [5],IC50 (MCF-7 breast cancer cell),IC50 (HepG2 hepatoma cell),IC50 [7],IC50 [8],IC50 [6],IC50 (L-02 normal liver cell),"SI (selectivity index), IC50 (L-02)/IC50 (MGC-803) [1]","SI (selectivity index), IC50 (L-02)/IC50 (SGC-7901) [3]","SI (selectivity index), IC50 (L-02)/IC50 (AGS) (AGS gastric cancer cell)","SI (selectivity index), IC50 (L-02)/IC50 (HCT-116) [7]","SI (selectivity index), IC50 (L-02)/IC50 (HepG-2) (HepG2 hepatoma cell)","SI (selectivity index), IC50 (L-02)/IC50 (BEL-7402) [4]",other results
Cc1cccc(/C=C(\C#N)c2ccc(OC(F)(F)F)cc2)c1 [Compound 1a2q],> 100 µM,> 100 µM,> 100 µM,> 100 µM,> 100 µM,> 100 µM,> 100 µM,> 100 µM,> 100 µM,> 100 µM,> 100 µM,> 100 µM,> 100 µM,–,–,–,–,–,–,–
Cc1cc(C)c(/C=C(\C#N)c2ccc(OC(F)(F)F)cc2)c(C)c1 [Compound 1a2r],> 100 µM,> 100 µM,> 100 µM,> 100 µM,> 100 µM,> 100 µM,> 100 µM,> 100 µM,> 100 µM,> 100 µM,> 100 µM,> 100 µM,> 100 µM,–,–,–,–,–,–,–
N#C/C(=C\c1ccc(N2CCCC2)cc1)c1ccc(OC(F)(F)F)cc1 [Compound 1a2t],41.5 ± 2.1 µM,> 100 µM,57.2 ± 14.3 µM,> 100 µM,> 100 µM,89.8 ± 1 µM,> 100 µM,> 100 µM,> 100 µM,30.8 ± 2.9 µM,> 100 µM,> 100 µM,> 100 µM,> 2.4,> 1.7,> 1.1,> 3.2,–,–,–
N#C/C(=C\c1ccco1)c1ccc(OC(F)(F)F)cc1 [Compound 1a3a],> 100 µM,> 100 µM,> 100 µM,> 100 µM,> 100 µM,> 100 µM,> 100 µM,> 100 µM,> 100 µM,> 100 µM,> 100 µM,> 100 µM,> 100 µM,–,–,–,–,–,–,–
N#C/C(=C\c1cccs1)c1ccc(OC(F)(F)F)cc1 [Compound 1a3b],41.5 ± 2.1 µM,> 100 µM,57.2 ± 14.3 µM,> 100 µM,> 100 µM,89.8 ± 1 µM,> 100 µM,> 100 µM,> 100 µM,30.8 ± 2.9 µM,> 100 µM,> 100 µM,> 100 µM,> 1.7,> 1.7,> 2.3,> 1.8,> 1.6,–,"SI (selectivity index), IC50 (L-02)/IC50 (A549) (A549 lung cancer cell): > 1.1"
N#C/C(=C\c1ccccc1)c1cccc(OC(F)(F)F)c1 [Compound 1b2a],> 100 µM,> 100 µM,> 100 µM,> 100 µM,> 100 µM,> 100 µM,> 100 µM,> 100 µM,> 100 µM,> 100 µM,> 100 µM,> 100 µM,> 100 µM,–,–,–,–,–,–,–
N#C/C(=C\c1ccc(F)cc1)c1cccc(OC(F)(F)F)c1 [Compound 1b2b],1.2 ± 0.6 µM,17 ± 4.3 µM,5.4 ± 0.2 µM,> 100 µM,3 ± 1 µM,8.2 ± 2.6 µM,60.4 ± 0.7 µM,> 100 µM,15.9 ± 5.2 µM,1.1 ± 0.3 µM,> 100 µM,11.3 ± 2.3 µM,16.1 ± 1 µM,> 13.1,> 2.9,> 1.9,> 14.5,> 1.0,> 5.2,–
N#C/C(=C\c1ccc(Br)cc1)c1cccc(OC(F)(F)F)c1 [Compound 1b2d],10.1 ± 0.9 µM,16.3 ± 6.1 µM,21.9 ± 3.3 µM,> 100 µM,14.6 ± 4.6 µM,13.9 ± 4.2 µM,35.6 ± 0.9 µM,> 100 µM,34.9 ± 3.2 µM,15.1 ± 2.9 µM,66.8 ± 9.8 µM,34.1 ± 3.6 µM,50.4 ± 0.8 µM,> 4.9,> 2.3,> 3.5,–,> 1.4,> 3.4,"SI (selectivity index), IC50 (L-02)/IC50 (Raji) [2]: > 3.0; SI (selectivity index), IC50 (L-02)/IC50 (SU-DHL-10) [5]: > 1.4"
Cc1ccc(/C=C(\C#N)c2cccc(OC(F)(F)F)c2)cc1 [Compound 1b2e],11.1 ± 0.3 µM,43.1 ± 4.5 µM,8.1 ± 2.9 µM,> 100 µM,39.4 ± 6.1 µM,4.5 ± 2 µM,29.3 ± 2 µM,> 100 µM,38.2 ± 0.1 µM,25 ± 0.5 µM,61.7 ± 3.3 µM,> 100 µM,54.2 ± 12.3 µM,> 4.8,> 6.6,> 11.9,> 2.1,> 1.4,> 1.3,"SI (selectivity index), IC50 (L-02)/IC50 (Raji) [2]: > 1.2; SI (selectivity index), IC50 (L-02)/IC50 (SU-DHL-10) [5]: > 1.8"
CCc1ccc(/C=C(\C#N)c2cccc(OC(F)(F)F)c2)cc1 [Compound 1b2f],49.3 ± 0.3 µM,> 100 µM,61.7 ± 0.4 µM,> 100 µM,44.8 ± 10.6 µM,43.8 ± 21.8 µM,> 100 µM,> 100 µM,72.9 ± 9.9 µM,> 100 µM,> 100 µM,> 100 µM,> 100 µM,> 2.0,> 1.6,> 2.2,–,> 1.9,> 2.2,–
CC(C)c1ccc(/C=C(\C#N)c2cccc(OC(F)(F)F)c2)cc1 [Compound 1b2g],> 100 µM,> 100 µM,> 100 µM,> 100 µM,> 100 µM,> 100 µM,> 100 µM,> 100 µM,> 100 µM,> 100 µM,> 100 µM,> 100 µM,> 100 µM,–,–,–,–,–,–,–
